Laboratory results taken from PubChem BioAssay (NCI).
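Briefly, cells in 96-well plates were exposed to five compound concentrations for 48 h, and endpoints were estimated by linear interpolation. Abbreviation: GI50, concentration required for 50% inhibition of growth. TGI: total growth inhibition.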

How the values were obtained:
Assay in all cases: inhibition of tumour cell growth, NCI panel, 48 h
U251 CNS = tested on: U251 CNS
HCT-116 colon = tested on: HCT-116 colon
UACC-62 melanoma = tested on: UACC-62 melanoma
MOLT-4 leukemia = tested on: MOLT-4 leukemia
SNB-75 CNS = tested on: SNB-75 CNS
HOP-62 NSCLC = tested on: HOP-62 NSCLC
CCRF-CEM leukemia = tested on: CCRF-CEM leukemia
NCI/ADR-RES ovarian = tested on: NCI/ADR-RES ovarian
T-47D breast = tested on: T-47D breast
HOP-92 NSCLC = tested on: HOP-92 NSCLC
MCF7 breast = tested on: MCF7 breast
HT29 colon = tested on: HT29 colon

Row | Structure (SMILES) | TGI (U251 CNS) [µM] | TGI (HCT-116 colon) [µM] | TGI (UACC-62 melanoma) [µM] | TGI (MOLT-4 leukemia) [µM] | TGI (SNB-75 CNS) [µM] | TGI (HOP-62 NSCLC) [µM] | TGI (CCRF-CEM leukemia) [µM] | TGI (NCI/ADR-RES ovarian) [µM] | TGI (T-47D breast) [µM] | TGI (HOP-92 NSCLC) [µM] | TGI (MCF7 breast) [µM] | TGI (HT29 colon) [µM] | GI50 (U251 CNS) [µM] | GI50 (HCT-116 colon) [µM] | GI50 (CCRF-CEM leukemia) [µM]
1 | S=c1ncc2c([nH]1)C1c3ccccc3C2c2ccccc21 | > 100 | > 100 | > 100 | > 100 | 77.2 | > 100 | > 100 |  |  |  |  |  |  |  | 
2 | Cc1ccc2c(=O)cc(-c3ccc(C)s3)[nH]c2n1 | > 55.2 | > 100 | > 78.1 | > 100 | > 100 | > 100 |  | 0.676 | > 66.5 | > 100 | > 100 |  |  |  | 
3 | COC(C)(C)/C=C/c1[nH]c2ccccc2c1CC(=O)NCCc1cn(C(c2ccccc2)(c2ccccc2)c2ccccc2)cn1 | 16.5 | 14.8 | 21.3 | 6.21 |  | 34.4 | > 100 | > 100 | > 21.9 | > 28.3 | 15.5 | > 21.5 |  |  | 
4 | COC(=O)CCNC(=O)OCc1ccccc1 | > 100 | > 100 | > 100 | > 100 | > 100 | > 100 | > 100 | > 100 | > 100 |  | > 100 | > 100 |  |  | 
5 | O=C1CC(CC(=O)c2ccc(Br)cc2)C(=O)/C1=C(/O)c1ccc(Br)cc1 (stereo unspecified) | > 100 | > 100 | > 100 | > 100 |  | > 100 | > 100 | > 100 | > 100 | > 100 | > 100 | > 100 |  |  | 
6 | Cc1cccc2sc(-c3ccc(O)cc3)nc12 | 39.1 | 28.9 | 30.1 | > 100 | 26.2 |  | 49.6 | 38.9 |  |  | 26.9 | 28.7 |  |  | 
7 | Cn1c2ccccc2c(=O)c2c(O)cc3c(c21)C=CC(C)(C)O3 | > 25 | > 25 | > 25 |  | 24.9 | > 25 | > 25 | > 25 |  | > 25 | > 25 | > 25 |  |  | 
8 | CCC1(c2ccc(N3C(=O)c4cc(OC)c(OC)cc4C3=O)cc2)CCC(=O)NC1=O (stereo unspecified) | > 10 | > 10 | > 10 | > 10 |  | > 10 | > 10 | > 10 | > 10 | > 10 | > 10 | > 10 |  |  | 
9 | C/C(=N\NC(=O)c1ccccc1O)c1cccc(/C(C)=N/NC(=O)c2ccccc2O)n1.O=S(=O)([O-])[O-].[Fe+2] | > 100 | > 100 | > 100 | > 100 | > 100 | > 100 | 5.74 |  |  | > 100 |  | > 100 | 59.1 | 69.2 | 1.42
10 | CCOC(=O)c1c(NC(=S)Nc2ccc(Cl)cc2)sc2c1CCN(C)C2 |  | > 100 | > 100 | > 100 |  | > 100 | > 100 | > 100 | > 100 |  | > 100 | > 100 |  |  | 
